Source: US20040019188A1, “Targeting through integrins” (priority 2000, published 2004)

Columns and labels:
HEp-2 cells [1] = assay: Competitive inhibition of HEp-2 cell attachment to (SPKR)4inv coated wells; assay type: cell-based, human; conditions: wells coated with (SPKR)4inv
Method: (§1) Cells were harvested with trypsin-EDTA and resuspended in medium containing soybean trypsin inhibitor. After centrifugation, the cell pellet was resuspended in medium containing 20 mM HEPES pH 7.5, 4 g/l BSA. For inhibition studies, 3×10^4 cells were incubated with increasing concentrations of SPKR4-inv protein for 30 min at 22° C.

HEp-2 cells [2] = assay: Competitive inhibition of HEp-2 cell attachment to fibronectin coated wells; assay type: cell-based, human
Method: as §1

| Substance | ID30 (concentration of competitor that results in 30% inhibition of cell attachment) (HEp-2 cells [1]) | ID30 compared with (SPKR)4inv (HEp-2 cells [2]; fibronectin coated wells) | ID30 (concentration of competitor that results in 30% inhibition of cell attachment) (HEp-2 cells [2]; wells coated with fibronectin) |
| --- | --- | --- | --- |
| A3β1: Recombinant soluble α3β1 integrin (Eble, 1998) | 0.050 µM |  |  |
| RGDS | 170 µM | three orders of magnitude higher | 170 µM |
